Molecules are shown by their SMILES.

Series [1] in a line: Growth inhibition of mouse J774 cells at 128 uM after 24 hrs by resazurin reduction assay. It counts as cell-based. Conditions: read-out: GI. (Resazurin is reduced to fluorescent resorufin, in cell work by metabolically active cells.)
Series [2] has as its system Trypanosoma cruzi. Description: Growth inhibition of epimastigote form of Trypanosoma cruzi CL-B5 at 128 uM after 72 hrs by lacZ reporter gene assay. Conditions: CL-B5, 72 h, read-out: GI. It counts as functional.
The nature of series [3]: Growth inhibition of mouse J774 cells at 64 uM after 24 hrs by resazurin reduction assay. It counts as cell-based. Conditions: read-out: GI.
Series [4] is described as follows: Growth inhibition of mouse J774 cells at 256 uM after 24 hrs by resazurin reduction assay. It counts as cell-based. The note with it: read-out: GI.
Series [5] relates to Trypanosoma cruzi. Nature of the series: Growth inhibition of epimastigote form of Trypanosoma cruzi CL-B5 at 256 uM after 72 hrs by lacZ reporter gene assay. The note with it: CL-B5, 72 h, read-out: GI. It counts as functional. Background: A reporter such as luciferase makes a cellular process visible.
Series [6] concerns Trypanosoma cruzi. Description: Growth inhibition of epimastigote form of Trypanosoma cruzi CL-B5 at 64 uM after 72 hrs by lacZ reporter gene assay. It counts as functional. Conditions: CL-B5, 72 h, read-out: GI.

With `CCCn1c2ccc([N+](=O)[O-])cc2c(=O)n1Cc1ccc2ccccc2c1`, in series [1], the inhibition at 24 h, 128 µM worked out at 11.9%. Moreover, the inhibition of growth at 128 µM with Trypanosoma cruzi [2] was 70.4%. For the same compound, in series [3], the inhibition at 24 h, 64 µM was determined as 0%. The inhibition at 24 h, 256 µM in series [4] amounted to 15.5%. Moreover, the inhibition of growth at 256 µM in the series on Trypanosoma cruzi [5] was 41.9%. The inhibition of growth at 64 µM with Trypanosoma cruzi [6] came out at 78%.

`CCCCOc1c2cc([N+](=O)[O-])ccc2nn1Cc1ccccc1`: the inhibition of growth at 128 µM in the series with Trypanosoma cruzi [2] is 48.5%. In addition, in series [4], the inhibition at 24 h, 256 µM worked out at 26.3%. Moreover, the inhibition of growth at 256 µM in the series with Trypanosoma cruzi [5] was 54.7%. Also, the inhibition of growth at 64 µM in the series on Trypanosoma cruzi [6] came out at 24.6%.

`Cn1c(=O)c2cc([N+](=O)[O-])ccc2n1Cc1ccccc1`: in series [1], the inhibition at 24 h, 128 µM was 6.91%. In addition, the inhibition of growth at 128 µM in the series on Trypanosoma cruzi [2] was determined as 70.3%. The inhibition at 24 h, 64 µM in series [3] turned out to be 0.55%. In addition, the inhibition at 24 h, 256 µM in series [4] was determined as 6.33%. Besides, in the series on Trypanosoma cruzi [5], the inhibition of growth at 256 µM was 80.6%. In the series with Trypanosoma cruzi [6], the inhibition of growth at 64 µM is 39.8%.

`COc1c2cc([N+](=O)[O-])ccc2nn1-c1ccccc1`: in the series with Trypanosoma cruzi [2], the inhibition of growth at 128 µM was found to be 0%. In the series with Trypanosoma cruzi [5], the inhibition of growth at 256 µM was 2.81%. For the same compound, the inhibition of growth at 64 µM in the series with Trypanosoma cruzi [6] is 0%.

Take `Cn1c2ccccc2c(=O)n1Cc1ccccc1`: the inhibition of growth at 128 µM with Trypanosoma cruzi [2] worked out at 36.6%. Moreover, the inhibition of growth at 256 µM with Trypanosoma cruzi [5] is 55.8%. The inhibition of growth at 64 µM in the series on Trypanosoma cruzi [6] came out at 28%.

`CCCCCOc1c2cc([N+](=O)[O-])ccc2nn1Cc1ccccc1`: the inhibition at 24 h, 128 µM in series [1] was determined as 0%. Also, in the series on Trypanosoma cruzi [2], the inhibition of growth at 128 µM worked out at 78.8%. In series [3], the inhibition at 24 h, 64 µM was found to be 0%. Moreover, the inhibition at 24 h, 256 µM in series [4] is 0%. In addition, in the series on Trypanosoma cruzi [5], the inhibition of growth at 256 µM was 79.3%. Moreover, in the series on Trypanosoma cruzi [6], the inhibition of growth at 64 µM amounted to 53.4%.

Take `CC(C)n1c2ccc([N+](=O)[O-])cc2c(=O)n1Cc1ccc2ccccc2c1`: the inhibition at 24 h, 128 µM in series [1] amounted to 0%. Moreover, the inhibition of growth at 128 µM in the series with Trypanosoma cruzi [2] amounted to 13%. Moreover, the inhibition at 24 h, 64 µM in series [3] amounted to 0%. The inhibition at 24 h, 256 µM in series [4] stood at 0%. Besides, the inhibition of growth at 256 µM in the series on Trypanosoma cruzi [5] was 24.2%. Also, the inhibition of growth at 64 µM with Trypanosoma cruzi [6] is 10.7%.

Regarding `O=[N+]([O-])c1ccc2nn(Cc3ccccc3)c(OCc3ccccc3)c2c1`, in series [1], the inhibition at 24 h, 128 µM was found to be 15.2%. In the series with Trypanosoma cruzi [2], the inhibition of growth at 128 µM came to 43.5%. The inhibition at 24 h, 256 µM in series [4] was found to be 64.7%. Further, the inhibition of growth at 256 µM in the series on Trypanosoma cruzi [5] came to 34.5%. In the series on Trypanosoma cruzi [6], the inhibition of growth at 64 µM was determined as 51.8%.

On to `Cn1c(=O)c2cc([N+](=O)[O-])ccc2n1-c1ccccc1`, for which the inhibition of growth at 128 µM with Trypanosoma cruzi [2] is 19.4%. For the same compound, the inhibition at 24 h, 256 µM in series [4] came out at 43.1%. Further, in the series with Trypanosoma cruzi [5], the inhibition of growth at 256 µM is 26.6%. Further, the inhibition of growth at 64 µM with Trypanosoma cruzi [6] is 14.2%.

`CC(C)Oc1c2cc([N+](=O)[O-])ccc2nn1-c1ccccc1`: the inhibition of growth at 128 µM in the series on Trypanosoma cruzi [2] was determined as 11.3%. In addition, the inhibition of growth at 256 µM in the series on Trypanosoma cruzi [5] was 6.26%. Further, the inhibition of growth at 64 µM in the series on Trypanosoma cruzi [6] came out at 20.7%.

`Cn1nc(OCc2ccc3ccccc3c2)c2cc([N+](=O)[O-])ccc21`: the inhibition at 24 h, 128 µM in series [1] came to 9%. Moreover, the inhibition of growth at 128 µM with Trypanosoma cruzi [2] was determined as 23.6%. In addition, the inhibition at 24 h, 64 µM in series [3] stood at 13.3%. Further, the inhibition of growth at 256 µM in the series on Trypanosoma cruzi [5] came out at 11.3%. Moreover, in the series on Trypanosoma cruzi [6], the inhibition of growth at 64 µM was found to be 46.4%.

Take `CCCn1c2ccc([N+](=O)[O-])cc2c(=O)n1C`: the inhibition at 24 h, 128 µM in series [1] was 0%. Also, the inhibition of growth at 128 µM in the series on Trypanosoma cruzi [2] is 7.92%. The inhibition at 24 h, 64 µM in series [3] came to 0%. Besides, the inhibition at 24 h, 256 µM in series [4] was 0%. For the same compound, in the series on Trypanosoma cruzi [5], the inhibition of growth at 256 µM turned out to be 11.6%. The inhibition of growth at 64 µM in the series on Trypanosoma cruzi [6] is 3.05%.

On to `Cn1c(=O)c2cc([N+](=O)[O-])ccc2n1C`, for which the inhibition at 24 h, 128 µM in series [1] was 0%. The inhibition of growth at 128 µM in the series with Trypanosoma cruzi [2] was 42.8%. In series [3], the inhibition at 24 h, 64 µM came to 11.4%. The inhibition at 24 h, 256 µM in series [4] amounted to 0%. For the same compound, the inhibition of growth at 256 µM with Trypanosoma cruzi [5] came to 68%. Moreover, in the series with Trypanosoma cruzi [6], the inhibition of growth at 64 µM amounted to 42.7%.

Consider `CC(C)n1c2ccc([N+](=O)[O-])cc2c(=O)n1-c1ccccc1`, for which, in series [1], the inhibition at 24 h, 128 µM was 0%. The inhibition of growth at 128 µM in the series on Trypanosoma cruzi [2] stood at 54.7%. For the same compound, in series [3], the inhibition at 24 h, 64 µM is 0%. The inhibition at 24 h, 256 µM in series [4] worked out at 16.8%. Also, the inhibition of growth at 256 µM in the series with Trypanosoma cruzi [5] is 84%. Further, in the series with Trypanosoma cruzi [6], the inhibition of growth at 64 µM stood at 28.3%.

As to `Cn1c2ccc([N+](=O)[O-])cc2c(=O)n1Cc1ccccc1`, the inhibition at 24 h, 128 µM in series [1] is 29%. For the same compound, in the series with Trypanosoma cruzi [2], the inhibition of growth at 128 µM worked out at 86%. Besides, the inhibition at 24 h, 64 µM in series [3] was 15.2%. Also, the inhibition at 24 h, 256 µM in series [4] turned out to be 0%. Moreover, in the series on Trypanosoma cruzi [5], the inhibition of growth at 256 µM was 91.7%. Besides, the inhibition of growth at 64 µM in the series on Trypanosoma cruzi [6] stood at 83.3%.

(Values after ChEMBL document CHEMBL2150935, “Synthesis, biological evaluation and chemometric analysis of indazole derivatives. 1,2-Disubstituted 5-nitroindazolinones, new prototypes of antichagasic drug” (Eur J Med Chem, 2012).)
